Values quoted from earlier work in US20160074480A1, “INNOVATIVE METHODS OF TREATMENTING TUBERCULOSIS” (priority 2015, published 2016).

Test system: TB bacteria
Conditions: laboratory dishes, including strains resistant to available anti-tuberculosis drug; cited from earlier work

O=C1O[C@H]([C@@H](O)CO)C(O)=C1O [Vitamin C, L-ascorbic acid]
killing of TB bacteria: killed TB bacteria
